From PubChem BioAssay (NCI)
“And” between values parts separate entries of the source, which are not always exact repeats. Equal values may be shown once.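 How tested: cells in 96-well plates exposed to compound for 48 hours at five concentrations. GI50 = concentration required for 50% inhibition of growth. TGI is the concentration that stops growth completely.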

Experiments:
Assay in all cases: NCI tumour cell line growth inhibition, 48 h
[1] = tested on: DU-145 prostate
[2] = tested on: SK-MEL-28 melanoma
[3] = tested on: M14 melanoma
[4] = tested on: NCI-H460 lung
[5] = tested on: NCI/ADR-RES ovarian
[6] = tested on: UACC-257 melanoma
[7] = tested on: OVCAR-4 ovarian
[8] = tested on: A549 NSCLC
[9] = tested on: PC-3 prostate
[10] = tested on: HOP-92 NSCLC

Row | Compound | GI50 [1] | TGI [1] | GI50 [2] | TGI [2] | GI50 [3] | TGI [3] | GI50 [4] | TGI [4] | GI50 [5] | TGI [5] | GI50 [6] | TGI [6] | GI50 [7] | TGI [7] | GI50 [8] | TGI [8] | GI50 [9] | TGI [9] | GI50 [10] | TGI [10]
1 | CC[C@H](C)[C@H](NC(=O)c1cccn1C)C(=O)N(C)[C@H](C[C@@H](OC(C)=O)c1nc(C(=O)N[C@@H](Cc2ccccc2)C[C@H](C)C(=O)OC)cs1)C(C)C | 0.348 µM | > 33.3 µM | 1.5 µM | > 33.3 µM | 0.131 µM | 0.832 µM | 0.123 µM | > 14.4 µM | 1.2 µM | > 33.3 µM | 18.2 µM | > 33.3 µM | 0.68 µM | > 33.3 µM | 0.661 µM | > 33.3 µM | 0.141 µM | > 33.3 µM | 0.13 µM | 5.08 µM
2 | CNC(=O)c1ccccc1Nc1nc(Nc2ccc3c(c2OC)CCC[C@H](N2CCN(CCO)CC2)C3)ncc1Cl | 1.17 µM and 0.888 µM | 14.8 µM and > 10 µM | 1.39 µM and 1.73 µM | 3.11 µM and 4.46 µM | 1.02 µM and 0.51 µM | 3.44 µM and 2.78 µM | 0.892 µM and 0.574 µM | 13.3 µM and > 10 µM | 4.62 µM and 3.01 µM | 17.9 µM and > 10 µM | 1.52 µM and 1.29 µM | 3.87 µM and 3.42 µM | 1.72 µM and 3.45 µM | 13.4 µM and > 10 µM | 1.45 µM and 1.44 µM | 10.2 µM and > 10 µM | 3.01 µM and 2.06 µM | 15.5 µM and > 10 µM | 0.154 µM and 0.148 µM | 1.64 µM and 0.863 µM
3 | CCn1c(-c2nonc2N)nc2c(N3CCCC3)nccc21 | 14 µM | > 25 µM | > 25 µM | > 25 µM | 24.5 µM | > 25 µM | 8.95 µM | > 25 µM | 10.7 µM | > 25 µM | > 22.4 µM | > 25 µM | 10.3 µM | > 25 µM | 13.2 µM | > 25 µM | 14.4 µM | > 25 µM | 3.88 µM | 22.9 µM
4 | COc1ccc(-c2cc(=O)c3c(O)c(OC)c(OC)c(OC)c3o2)cc1 |  | > 100 µM |  | > 100 µM |  | > 100 µM |  | > 100 µM |  | > 100 µM |  | > 100 µM |  | > 100 µM |  | > 100 µM |  | > 100 µM |  | > 82.8 µM
5 | COc1ccc(S(=O)(=O)N(C(C)=O)c2ccccc2/C=C/c2cc[n+]([O-])cc2)cc1 | 0.813 µM | > 10 µM | > 4.8 µM | > 10 µM | 0.388 µM | 8.08 µM | 0.412 µM | > 10 µM | 2.51 µM | > 10 µM |  | > 10 µM | > 6.79 µM | > 10 µM | 0.636 µM | > 10 µM | 0.688 µM | > 10 µM |  | > 10 µM
6 | COC(C)C(O)(C(=O)OCC1=CCN2CCC(O)C12)C(C)(C)O (stereo unspecified) |  | > 100 µM |  | > 100 µM |  | > 100 µM |  | > 100 µM |  | > 100 µM |  | > 100 µM |  | > 100 µM |  | > 100 µM |  | > 100 µM |  | > 100 µM
7 | COc1ccc2[nH]c(C(=O)OCc3ccc4c(Cl)cc(Cl)c(O)c4n3)cc2c1 | 1.33 µM | 2.61 µM | 1.67 µM | 3.03 µM | 1.44 µM | 2.91 µM | 1.75 µM | 3.45 µM | 2.08 µM | 8.16 µM | 1.64 µM | 4.23 µM | 1.49 µM | 2.92 µM | 1.67 µM | 3.4 µM | 0.99 µM | 2.57 µM | 0.456 µM | 1.99 µM
8 | CCC1=C(CC2NCCc3ccccc32)CC2c3cc(OC)c(OC)cc3CCN2C1 (stereo unspecified) | 3.24 µM | 12.7 µM and 2.59 µM | 4.35 µM | 14.4 µM and 9.26 µM | 4.53 µM | 16 µM and 3.49 µM | 3.28 µM | 11.7 µM and 3.57 µM | 6.7 µM | 50.9 µM and 12.4 µM | 10 µM | 24.5 µM and 9.49 µM | 3.87 µM |  | 3.49 µM | 19.9 µM and 4.88 µM | 3.48 µM |  | 1.23 µM | 9.48 µM and 16.6 µM
9 | CC(C)(C)OC(=O)Nc1ccc2c(c1)C(NC(=O)Nc1cccc(C#N)c1)CC(C)(C)O2 (stereo unspecified) | 6.5 µM | > 100 µM | 5.34 µM | 71.4 µM | 3.73 µM | 40.5 µM | 3 µM | > 100 µM | 2.78 µM | > 64.6 µM | 1.07 µM | 6.93 µM | 1.18 µM | > 100 µM | 2.9 µM | > 100 µM | 0.785 µM | > 35.3 µM | 4.06 µM | > 28.3 µM
10 | CCOC(=O)/C=C/c1cccc(F)c1 |  | > 100 µM |  | > 100 µM |  | > 100 µM |  | > 100 µM |  | > 100 µM |  | > 100 µM |  | > 100 µM |  | > 100 µM |  | > 100 µM |  | > 100 µM
11 | CC/C(=C/c1ccc(OC)cc1OC)[N+](=O)[O-] | 3.61 µM | 13.8 µM | 2.51 µM | 6.51 µM | 2.44 µM | 8.53 µM | 2.71 µM | 7.56 µM | 3.17 µM | 12.6 µM | 2.31 µM | 6.29 µM | 4.66 µM | 17.3 µM | 8.37 µM | 23.4 µM | 3.84 µM | 13.1 µM | 4.27 µM | 14.3 µM
12 | COc1cc(C(=O)c2cocc2C(=O)c2ccc3c(c2)OCO3)cc(OC)c1OC |  | 21.2 µM |  | > 49.5 µM |  | 33.5 µM |  | 23.4 µM |  | 1.3 µM |  | > 45.7 µM |  | > 54.3 µM |  | > 68 µM |  | > 35.9 µM |  | 35.4 µM
13 | COc1ccc2nc3cc(Cl)ccc3c(Nc3cc(CN4CCCC4)c(O)c(CN4CCCC4)c3)c2n1 | 2.43 µM | 13.6 µM | 2.15 µM | 4.5 µM | 1.62 µM | 2.97 µM | 0.638 µM | 2.49 µM | 1.64 µM | 6.51 µM | 1.71 µM | 3.26 µM | 1.12 µM | 4.72 µM | 1.29 µM | 22 µM | 1.53 µM | 6.52 µM | 1.04 µM | 3.74 µM
